Entries after “also recorded” stand apart in the source; their conditions may differ. Read-outs that look alike come from different tables or passages of the source. Residues, ends and D or L forms follow the SMILES beside them.
Key:
[1] = tested on: S91 mouse Cloudman cells (cell line M3); test: In vitro anti-proliferation assay, Cloudman melanoma cell counts; format: cell-based; settings: for EC50: Cloudman melanoma cells; for Anti-proliferative effect on Cloudman melanoma cells (in words): in vitro
Procedure: S91 mouse Cloudman cells (cell line M3) were obtained from the American Type Culture Collection. Hams F-10 medium, fetal bovine serum, and horse serum were obtained from Gibco BRL. Cloudman cells were cultured in Ham's F-10 medium supplemented with 5% horse serum, 2.5% fetal bovine serum, and 1% penicillin/streptomycin in a humidified incubator with 5% C02 at 37° C. Media were changed every second day.
Cells were plated at a concentration of ˜20,000 cells per well in Ham's F-10 medium supplemented with 5% horse serum, 2.5% fetal bovine serum and 1% penicillin/streptomycin into tissue-culture-12-well plates. Test peptides or sterile water containing 0.5% BSA (vehicle control) were added to culture medium prior to plating, and cells were allowed to adhere overnight in a humidified incubator with 5% CO2 at 37° C. Culture medium containing peptides and culture medium containing vehicle control were changed daily. For counting, cells were detached with 200 μL of 0.25% trypsin. Detachment levels were verified under a light microscope. After detachment, cell suspensions were transferred to 1.5-mL Eppendorf tubes, vigorously pipetted for uniform suspension, and cell number in 10 μL of cell suspension was counted in a hemacytometer under a light microscope.

[2] = tested on: W256 rat mammary carcinoma; settings: 100 micrograms/kg subcutaneously twice a day for 3 days; cited from earlier work
W256 cells = settings: cited from earlier work
[3] = Hypotensive activity relative to CRH; settings: in vivo
[4] = Cloudman cells, relative to CRH
[5] = read-out: EC50 values for CRH peptides versus Cloudman melanoma

Compound | EC50 [1, 5] [pM] | Anti-proliferative effect on Cloudman melanoma cells (in words) [1] | further results
α-helical-CRH(9-41) | – | – | Inhibition of the anti-proliferative effect of CRH peptides by the CRH receptor antagonist ([1]; Cloudman cells): inhibited
CC[C@H](C)[C@H](NC(=O)[C@@H](NC(=O)[C@H](CCC(=O)O)NC(=O)[C@H](CCSC)NC(=O)[C@H](CC(C)C)NC(=O)[C@H](CCCCN)NC(=O)[C@H](CCCNC(=N)N)NC(=O)[C@H](CC(N)=O)NC(=O)[C@H](CO)NC(=O)[C@H](Cc1c[nH]cn1)NC(=O)[C@H](C)NC(=O)[C@H](CCC(N)=O)NC(=O)[C@H](CCC(N)=O)NC(=O)[C@H](C)NC(=O)[C@H](CC(C)C)NC(=O)[C@H](CCC(N)=O)NC(=O)[C@H](CCC(=O)O)NC(=O)[C@H](C)NC(=O)[C@H](CCCNC(=N)N)NC(=O)[C@H](C)NC(=O)[C@H](CCSC)NC(=O)[C@H](CCC(=O)O)NC(=O)[C@H](CC(C)C)NC(=O)[C@@H](NC(=O)[C@H](CCC(=O)O)NC(=O)[C@H](CCCNC(=N)N)NC(=O)[C@H](CC(C)C)NC(=O)[C@H](CC(C)C)NC(=O)[C@H](Cc1c[nH]cn1)NC(=O)[C@H](Cc1ccccc1)NC(=O)[C@@H](NC(=O)[C@H](CC(C)C)NC(=O)[C@H](CC(=O)O)NC(=O)[C@H](CC(C)C)NC(=O)[C@H](CO)NC(=O)[C@@H](NC(=O)[C@H]1CCCN1C(=O)[C@@H]1CCCN1C(=O)[C@H](CCC(=O)O)NC(=O)[C@H](CCC(=O)O)NC(=O)[C@@H](N)CO)[C@@H](C)CC)[C@@H](C)O)C(C)C)[C@@H](C)CC)C(N)=O [III, [D-Pro^5]-CRH] | 82 | – | EC50 fold greater than CRH [1, 4]: 10 fold
acetyl-cyclo (30-33)[D-Phe^12, Nle^18, D-Glu^20, Nle^21, Glu^30, D-Ala^32]-urotensin 1(4-41) [Peptide V] | – | highly effective in suppressing proliferation | EC50 fold lower than that of CRH [1, 4]: 10 fold
CC[C@H](C)[C@H](NC(=O)[C@@H](NC(=O)[C@H](CC(=O)O)NC(=O)[C@H](CC(C)C)NC(=O)[C@H](CC(C)C)NC(=O)[C@H](CC(C)C)NC(=O)[C@H](CCCNC(=N)N)NC(=O)[C@H](CC(N)=O)NC(=O)[C@H](CC(N)=O)NC(=O)[C@H](C)NC(=O)[C@H](C)NC(=O)[C@H](CCC(N)=O)NC(=O)[C@H](CCC(N)=O)NC(=O)[C@H](CCCCN)NC(=O)[C@H](CCC(=O)O)NC(=O)[C@H](CCCCN)NC(=O)[C@H](CCC(=O)O)NC(=O)[C@H](CCC(N)=O)NC(=O)[C@H](CCCCN)NC(=O)[C@H](CCC(=O)O)NC(=O)[C@@H](NC(=O)[C@H](CCC(=O)O)NC(=O)[C@@H](NC(=O)[C@H](CCSC)NC(=O)[C@H](CCCCN)NC(=O)[C@H](CCCNC(=N)N)NC(=O)[C@H](CC(C)C)NC(=O)[C@H](CC(C)C)NC(=O)[C@H](CCC(=O)O)NC(=O)[C@H](CC(C)C)NC(=O)[C@H](CO)NC(=O)[C@H](CC(C)C)NC(=O)[C@H](CC(=O)O)NC(=O)[C@@H](NC(=O)[C@H](CO)NC(=O)[C@@H](NC(=O)[C@@H]1CCCN1C(=O)[C@@H]1CCCN1C(=O)CNC(=O)[C@@H]1CCC(=O)N1)[C@@H](C)CC)[C@@H](C)CC)[C@@H](C)CC)[C@@H](C)CC)[C@@H](C)O)C(N)=O [VII, Sauvagine] | 7.8 | highly effective in suppressing proliferation | –

More lines, main results first:

EC50 [1, 5] [pM] | Compound | Anti-proliferative effect on Cloudman melanoma cells (in words) [1] | further results
9.5 | CC[C@H](C)[C@H](NC(=O)[C@H](CO)NC(=O)[C@H](CC(C)C)NC(=O)[C@H](CO)NC(=O)[C@@H]1CCCN1C(=O)[C@H](CC(N)=O)NC(=O)[C@@H](N)CC(=O)O)C(=O)N[C@@H](CC(=O)O)C(=O)N[C@@H](CC(C)C)C(=O)N[C@H](C(=O)N[C@@H](Cc1ccccc1)C(=O)N[C@@H](Cc1c[nH]cn1)C(=O)N[C@@H](CC(C)C)C(=O)N[C@@H](CC(C)C)C(=O)N[C@@H](CCCNC(=N)N)C(=O)N[C@H](C(=O)N[C@@H](CC(C)C)C(=O)N[C@@H](CC(C)C)C(=O)N[C@@H](CCC(=O)O)C(=O)N[C@@H](CC(C)C)C(=O)N[C@@H](C)C(=O)N[C@@H](CCCNC(=N)N)C(=O)N[C@H](C(=O)N[C@@H](CCC(N)=O)C(=O)N[C@@H](CO)C(=O)N[C@@H](CCC(N)=O)C(=O)N[C@@H](CCCNC(=N)N)C(=O)N[C@@H](CCC(=O)O)C(=O)N[C@@H](CCCNC(=N)N)C(=O)N[C@@H](C)C(=O)N[C@@H](CCC(=O)O)C(=O)N[C@@H](CCC(N)=O)C(=O)N[C@@H](CC(N)=O)C(=O)N[C@@H](CCCNC(=N)N)C(=O)N[C@H](C(=O)N[C@H](C(=O)N[C@@H](Cc1ccccc1)C(=O)N[C@@H](CC(=O)O)C(=O)N[C@@H](CO)C(=O)N[C@H](C(N)=O)C(C)C)[C@@H](C)CC)[C@@H](C)CC)[C@@H](C)O)[C@@H](C)O)[C@@H](C)O [VI, Urocortin] (H-DNPSLSIDLTFHLLRTLLELARTQSQRERAEQNRIIFDSV-NH2) | highly effective in suppressing proliferation | –
8.6 | CC[C@H](C)[C@H](NC(=O)[C@@H](NC(=O)[C@H](CCC(=O)O)NC(=O)[C@H](CCSC)NC(=O)[C@H](CC(C)C)NC(=O)[C@H](CCCCN)NC(=O)[C@H](CCCNC(=N)N)NC(=O)[C@H](CC(N)=O)NC(=O)[C@H](CO)NC(=O)[C@H](Cc1c[nH]cn1)NC(=O)[C@H](C)NC(=O)[C@H](CCC(N)=O)NC(=O)[C@H](CCC(N)=O)NC(=O)[C@H](C)NC(=O)[C@H](CC(C)C)NC(=O)[C@H](CCC(N)=O)NC(=O)[C@H](CCC(=O)O)NC(=O)[C@H](C)NC(=O)[C@H](CCCNC(=N)N)NC(=O)[C@H](C)NC(=O)[C@H](CCSC)NC(=O)[C@H](CCC(=O)O)NC(=O)[C@H](CC(C)C)NC(=O)[C@@H](NC(=O)[C@H](CCC(=O)O)NC(=O)[C@H](CCCNC(=N)N)NC(=O)[C@H](CC(C)C)NC(=O)[C@H](CC(C)C)NC(=O)[C@H](Cc1c[nH]cn1)NC(=O)[C@H](Cc1ccccc1)NC(=O)[C@@H](NC(=O)[C@H](CC(C)C)NC(=O)[C@H](CC(=O)O)NC(=O)[C@H](CC(C)C)NC(=O)[C@H](CO)NC(=O)[C@@H](NC(=O)[C@@H]1CCCN1C(=O)[C@@H]1CCCN1C(=O)[C@H](CCC(=O)O)NC(=O)[C@H](CCC(=O)O)NC(=O)[C@@H](N)CO)[C@@H](C)CC)[C@@H](C)O)C(C)C)[C@@H](C)CC)C(N)=O [Peptide I, CRH] | Significant anti-proliferative effects | Inhibition of growth of intracerebrally-injected W256 tumor cells [2]: significant inhibition of growth; Antiproliferative effects in in vitro cultures of W256 cells (W256 cells): exhibited antiproliferative effects; Time of maximum suppression of proliferation after treatment ([1]; Cloudman cells): about 96 hr; EC50 ([1]; 96 hr, read-out: EC50 of CRH after 96 hr): 9 pM
16 | CC[C@H](C)[C@H](NC(=O)[C@@H](NC(=O)[C@H](CCC(=O)O)NC(=O)[C@H](CCSC)NC(=O)[C@H](CC(C)C)NC(=O)[C@H](CCCCN)NC(=O)[C@H](CCCNC(=N)N)NC(=O)[C@H](CC(N)=O)NC(=O)[C@H](CO)NC(=O)[C@H](Cc1c[nH]cn1)NC(=O)[C@H](C)NC(=O)[C@H](CCC(N)=O)NC(=O)[C@H](CCC(N)=O)NC(=O)[C@H](C)NC(=O)[C@H](CC(C)C)NC(=O)[C@H](CCC(N)=O)NC(=O)[C@H](CCC(=O)O)NC(=O)[C@H](C)NC(=O)[C@H](CCCNC(=N)N)NC(=O)[C@H](C)NC(=O)[C@H](CCSC)NC(=O)[C@@H](CCC(=O)O)NC(=O)[C@H](CC(C)C)NC(=O)[C@@H](NC(=O)[C@H](CCC(=O)O)NC(=O)[C@H](CCCNC(=N)N)NC(=O)[C@H](CC(C)C)NC(=O)[C@H](CC(C)C)NC(=O)[C@H](Cc1c[nH]cn1)NC(=O)[C@H](Cc1ccccc1)NC(=O)[C@@H](NC(=O)[C@H](CC(C)C)NC(=O)[C@H](CC(=O)O)NC(=O)[C@H](CC(C)C)NC(=O)[C@H](CO)NC(=O)[C@@H](NC(=O)[C@@H]1CCCN1C(=O)[C@@H]1CCCN1C(=O)[C@H](CCC(=O)O)NC(=O)[C@H](CCC(=O)O)NC(=O)[C@@H](N)CO)[C@@H](C)CC)[C@@H](C)O)C(C)C)[C@@H](C)CC)C(N)=O [II, [D-Glu^20]-CRH] | retained; also recorded: significantly inhibit proliferation | Hypotensive activity relative to CRH [3]: diminished

— patent US7285534B2, “Corticotropin-releasing hormone analogs and their uses” (The Regents of the University of California, priority 2002, dated 2007)
